Test results taken from patent publication US9867886B2, “Complex in which anti-cotinine antibody is bound to conjugate of cotinine and binding substance, and use thereof” (SNU R&DB FOUNDATION, priority 2011, dated 2018).
m = 2'-O-methyl; r = 2'-OH (RNA); f = 2'-fluoro

How the values were obtained:
mouse = settings: cited from earlier work
[1] = in vivo; cited from earlier work
humans = settings: cited from earlier work
[2] = Pharmacokinetics of cotinine-pegaptanib and its anti-cotinine IgG complex in mice (serum VEGF ELISA); format: in vivo; settings: ICR mouse, tail vein, 0.135 mg/kg
Protocol: Male wild-type ICR mouse aged from 4 to 6 weeks were injected through tail vein with cotinine-pegaptanib (0.135 mg/kg) and a cotinine-pegaptanib (0.135 mg/kg)/anti-cotinine IgG (1 mg/kg) complex, diluted in 100 μL of PBS. Each peripheral blood was obtained through the orbital plexus at 0, 0.5, 1, 1.5 and 2 hours after the injection, and the obtained peripheral blood was maintained at a room temperature for 30 minutes then centrifuged at 800 g for 15 minutes to collect supernatant only so that serum was obtained, and analyzed by using ELISA.
Each well of a 96-well ELISA plate was coated with 50 ng of human VEGF dissolved in PBS overnight, and then blocked by PBSB. Then, each serum was diluted in PBSB at a ratio of 1:100, and added to each well with 100 nM of an anti-cotinine IgG The plate was maintained at a room temperature for one hour and washed with PBS-T, and then HRP-bound rabbit anti-human Fc specific IgG (Thermo Fisher Scientific) was added to each well. The resultant mixture was maintained at room temperature for one hour. Subsequently, 3,3′,5,5′-tetramethylbenzidine (TMB) (Thermo Fisher Scientific) was added as a substrate to the resultant mixture, and kept at a room temperature for 15 minutes, followed by measuring the optical density at 650 nm.

| Compound | LD50 (mouse) | half-life in serum [1] | side effects (humans; 4-day administration at a daily dose of 1.8 g) | physiological activity; physiological and behavioral changes (humans; humans, maximally 160 mg for three days) | degradation after injection into the body [2] |
| --- | --- | --- | --- | --- | --- |
| CN1C(=O)CC[C@H]1c1cccnc1 [cotinine] | 2000 to 4000 mg/kg | about 16 hours | no particular side effects have not been reported | any physiological and behavioral changes have not been reported |  |
| cotinine-pegaptanib: nucleic acid part of pegaptanib RNA aptamer (SEQ ID NO: 5) conjugated with cotinine via amino C6 linker (CGGAAUCAGUGAAUGCUUAUACAUCCG; sugars from the 5' end fmmrrffmmfmmmfmfffmfmfmfffm, backbone not given here; cotinine conjugated via amino C6 linker, further chemistry not fully specified) |  |  |  |  | degraded immediate after injection into the body |
